24 substances from the OligoGym collection can be followed below.

The target in this data set is SMN2. The experiment in a line: mouse, dose not given. To be noted: ASO.

Values joined by “and” are separate entries in the source; they are usually repeats but may differ in a detail not shown here. Equal entries are not always repeated. HELM strings list units from the 5' end as sugar, base in round brackets, then linkage (d deoxyribose, r ribose, m 2'-O-methyl, p phosphodiester). Strings are as the collection lists them; they lack the last nucleoside at the 3' end of the tested compound. [moe] = 2'-O-(2-methoxyethyl) (MOE); [sp] = phosphorothioate linkage; [m5C] = 5-methylcytosine

For the substance “RNA1{[moe]([m5C])[sp].[moe](A)[sp].[moe]([m5C])[sp].[moe](T)[sp].[moe](T)[sp].[moe](T)[sp].[moe]([m5C])[sp].[moe](A)[sp].[moe](T)[sp].[moe](A)[sp].[moe](A)[sp].[moe](T)[sp].[moe](G)p.[moe]([m5C])[sp].[moe](T)[sp].[moe](G)[sp].[moe](G)}$$$$ (last 3' nucleoside missing)”, the 3 h FOB score came to 0 score 0-7. Take “RNA1{[moe](T)[sp].[moe]([m5C])[sp].[moe](A)[sp].[moe]([m5C])[sp].[moe](T)[sp].[moe](T)[sp].[moe](T)[sp].[moe]([m5C])[sp].[moe](A)[sp].[moe](T)[sp].[moe](A)[sp].[moe](A)[sp].[moe](T)p.[moe](G)[sp].[moe]([m5C])p.[moe](T)[sp].[moe](G)[sp].[moe](G)}$$$$ (last 3' nucleoside missing)”: the 3 h FOB score was 1 score 0-7 and 2 score 0-7 and 1.25 score 0-7 (2×).

“RNA1{[moe](A)[sp].[moe]([m5C])[sp].[moe](T)[sp].[moe](T)[sp].[moe](T)[sp].[moe]([m5C])[sp].[moe](A)[sp].[moe](T)[sp].[moe](A)[sp].[moe](A)[sp].[moe](T)[sp].[moe](G)[sp].[moe]([m5C])[sp].[moe](T)[sp].[moe](G)[sp].[moe](G)[sp].[moe]([m5C])[sp].[moe](A)}$$$$ (last 3' nucleoside missing)” yielded a 3 h FOB score of 0 score 0-7. With “RNA1{[moe]([m5C])[sp].[moe](A)[sp].[moe]([m5C])[sp].[moe](T)[sp].[moe](T)[sp].[moe](T)[sp].[moe]([m5C])[sp].[moe](A)[sp].[moe](T)[sp].[moe](A)[sp].[moe](A)[sp].[moe](T)p.[moe](G)p.[moe]([m5C])p.[moe](T)p.[moe](G)[sp].[moe](G)}$$$$ (last 3' nucleoside missing)” the figure was 0 score 0-7; with “RNA1{[moe](A)[sp].[moe]([m5C])[sp].[moe](T)[sp].[moe](T)[sp].[moe](T)[sp].[moe]([m5C])p.[moe](A)p.[moe](T)p.[moe](A)p.[moe](A)p.[moe](T)p.[moe](G)p.[moe]([m5C])[sp].[moe](T)[sp].[moe](G)[sp].[moe](G)}$$$$ (last 3' nucleoside missing)”, 0 score 0-7. With “RNA1{[moe](A)[sp].[moe](T)[sp].[moe](T)[sp].[moe]([m5C])[sp].[moe](A)[sp].[moe]([m5C])[sp].[moe](T)[sp].[moe](T)[sp].[moe](T)[sp].[moe]([m5C])[sp].[moe](A)[sp].[moe](T)[sp].[moe](A)[sp].[moe](A)[sp].[moe](T)[sp].[moe](G)[sp].[moe]([m5C])p.[moe](T)[sp].[moe](G)}$$$$ (last 3' nucleoside missing)” the figure was 4 score 0-7. To “RNA1{[moe](A)[sp].[moe]([m5C])p.[moe](T)p.[moe](T)p.[moe](T)p.[moe]([m5C])[sp].[moe](A)[sp].[moe](T)[sp].[moe](A)[sp].[moe](A)[sp].[moe](T)[sp].[moe](G)p.[moe]([m5C])p.[moe](T)p.[moe](G)[sp].[moe](G)}$$$$ (last 3' nucleoside missing)” belongs 0 score 0-7. “RNA1{[moe](T)[sp].[moe]([m5C])[sp].[moe](A)[sp].[moe]([m5C])[sp].[moe](T)[sp].[moe](T)[sp].[moe](T)[sp].[moe]([m5C])[sp].[moe](A)p.[moe](T)[sp].[moe](A)[sp].[moe](A)[sp].[moe](T)[sp].[moe](G)p.[moe]([m5C])[sp].[moe](T)[sp].[moe](G)}$$$$ (last 3' nucleoside missing)” had a 3 h FOB score of 3.5 score 0-7. With “RNA1{[moe]([m5C])[sp].[moe](T)[sp].[moe](T)[sp].[moe](T)[sp].[moe]([m5C])[sp].[moe](A)[sp].[moe](T)p.[moe](A)p.[moe](A)p.[moe](T)p.[moe](G)[sp].[moe]([m5C])[sp].[moe](T)[sp].[moe](G)[sp].[moe](G)}$$$$ (last 3' nucleoside missing)” the figure was 0.75 score 0-7; with “RNA1{[moe](T)[sp].[moe]([m5C])[sp].[moe](A)[sp].[moe]([m5C])[sp].[moe](T)[sp].[moe](T)[sp].[moe](T)[sp].[moe]([m5C])[sp].[moe](A)[sp].[moe](T)[sp].[moe](A)[sp].[moe](A)[sp].[moe](T)[sp].[moe](G)p.[moe]([m5C])[sp].[moe](T)[sp].[moe](G)}$$$$ (last 3' nucleoside missing)”, 3.75 score 0-7; with “RNA1{[moe]([m5C])[sp].[moe](A)[sp].[moe]([m5C])[sp].[moe](T)[sp].[moe](T)[sp].[moe](T)p.[moe]([m5C])p.[moe](A)[sp].[moe](T)[sp].[moe](A)[sp].[moe](A)[sp].[moe](T)[sp].[moe](G)[sp].[moe]([m5C])[sp].[moe](T)[sp].[moe](G)[sp].[moe](G)}$$$$ (last 3' nucleoside missing)”, 0 score 0-7.

Regarding “RNA1{[moe](A)[sp].[moe](T)[sp].[moe](T)[sp].[moe]([m5C])[sp].[moe](A)[sp].[moe]([m5C])[sp].[moe](T)[sp].[moe](T)[sp].[moe](T)[sp].[moe]([m5C])[sp].[moe](A)[sp].[moe](T)[sp].[moe](A)[sp].[moe](A)[sp].[moe](T)[sp].[moe](G)[sp].[moe]([m5C])[sp].[moe](T)}$$$$ (last 3' nucleoside missing)”, the 3 h FOB score turned out to be 3.5 score 0-7. To “RNA1{[moe]([m5C])[sp].[moe](T)p.[moe](T)p.[moe](T)p.[moe]([m5C])[sp].[moe](A)[sp].[moe](T)[sp].[moe](A)[sp].[moe](A)[sp].[moe](T)[sp].[moe](G)p.[moe]([m5C])p.[moe](T)p.[moe](G)[sp].[moe](G)}$$$$ (last 3' nucleoside missing)” belongs 0 score 0-7; to “RNA1{[moe]([m5C])[sp].[moe](A)[sp].[moe]([m5C])[sp].[moe](T)[sp].[moe](T)[sp].[moe](T)[sp].[moe]([m5C])[sp].[moe](A)p.[moe](T)p.[moe](A)p.[moe](A)p.[moe](T)[sp].[moe](G)[sp].[moe]([m5C])[sp].[moe](T)[sp].[moe](G)[sp].[moe](G)}$$$$ (last 3' nucleoside missing)”, 0 score 0-7. To “RNA1{[moe](T)[sp].[moe]([m5C])[sp].[moe](A)[sp].[moe]([m5C])[sp].[moe](T)[sp].[moe](T)[sp].[moe](T)[sp].[moe]([m5C])[sp].[moe](A)[sp].[moe](T)[sp].[moe](A)[sp].[moe](A)[sp].[moe](T)[sp].[moe](G)[sp].[moe]([m5C])p.[moe](T)[sp].[moe](G)}$$$$ (last 3' nucleoside missing)” belongs 2.75 score 0-7; to “RNA1{[moe](T)[sp].[moe]([m5C])p.[moe](A)[sp].[moe]([m5C])p.[moe](T)[sp].[moe](T)[sp].[moe](T)[sp].[moe]([m5C])[sp].[moe](A)[sp].[moe](T)[sp].[moe](A)[sp].[moe](A)[sp].[moe](T)[sp].[moe](G)[sp].[moe]([m5C])[sp].[moe](T)[sp].[moe](G)}$$$$ (last 3' nucleoside missing)”, 3.75 score 0-7. In the case of “RNA1{[moe]([m5C])[sp].[moe](T)[sp].[moe](T)p.[moe](T)[sp].[moe]([m5C])[sp].[moe](A)p.[moe](T)[sp].[moe](A)[sp].[moe](A)p.[moe](T)[sp].[moe](G)[sp].[moe]([m5C])p.[moe](T)[sp].[moe](G)[sp].[moe](G)}$$$$ (last 3' nucleoside missing)”, the 3 h FOB score amounted to 0 score 0-7. To “RNA1{[moe]([m5C])[sp].[moe](T)[sp].[moe](T)p.[moe](T)[sp].[moe]([m5C])[sp].[moe](A)[sp].[moe](T)[sp].[moe](A)[sp].[moe](A)[sp].[moe](T)[sp].[moe](G)[sp].[moe]([m5C])[sp].[moe](T)p.[moe](G)[sp].[moe](G)}$$$$ (last 3' nucleoside missing)” belongs 0.5 score 0-7. Substance “RNA1{[moe](A)[sp].[moe]([m5C])[sp].[moe](T)[sp].[moe](T)[sp].[moe](T)p.[moe]([m5C])p.[moe](A)p.[moe](T)p.[moe](A)[sp].[moe](A)[sp].[moe](T)[sp].[moe](G)[sp].[moe]([m5C])[sp].[moe](T)[sp].[moe](G)[sp].[moe](G)}$$$$ (last 3' nucleoside missing)” returned a 3 h FOB score of 0 score 0-7. Take “RNA1{[moe]([m5C])[sp].[moe](T)[sp].[moe](T)[sp].[moe](T)[sp].[moe]([m5C])[sp].[moe](A)[sp].[moe](T)[sp].[moe](A)[sp].[moe](A)[sp].[moe](T)p.[moe](G)p.[moe]([m5C])p.[moe](T)p.[moe](G)[sp].[moe](G)}$$$$ (last 3' nucleoside missing)”: the 3 h FOB score is 0 score 0-7. To “RNA1{[moe](T)[sp].[moe](T)[sp].[moe]([m5C])[sp].[moe](A)[sp].[moe]([m5C])[sp].[moe](T)[sp].[moe](T)[sp].[moe](T)[sp].[moe]([m5C])[sp].[moe](A)[sp].[moe](T)[sp].[moe](A)[sp].[moe](A)[sp].[moe](T)p.[moe](G)[sp].[moe]([m5C])p.[moe](T)[sp].[moe](G)}$$$$ (last 3' nucleoside missing)” belongs 1 score 0-7. With “RNA1{[moe]([m5C])[sp].[moe](A)[sp].[moe]([m5C])p.[moe](T)p.[moe](T)p.[moe](T)p.[moe]([m5C])[sp].[moe](A)[sp].[moe](T)[sp].[moe](A)[sp].[moe](A)[sp].[moe](T)[sp].[moe](G)[sp].[moe]([m5C])[sp].[moe](T)[sp].[moe](G)[sp].[moe](G)}$$$$ (last 3' nucleoside missing)” the figure was 0 score 0-7; with “RNA1{[moe](T)p.[moe](T)[sp].[moe]([m5C])[sp].[moe](A)[sp].[moe]([m5C])[sp].[moe](T)[sp].[moe](T)[sp].[moe](T)[sp].[moe]([m5C])[sp].[moe](A)[sp].[moe](T)[sp].[moe](A)[sp].[moe](A)[sp].[moe](T)[sp].[moe](G)[sp].[moe]([m5C])[sp].[moe](T)[sp].[moe](G)}$$$$ (last 3' nucleoside missing)”, 4 score 0-7; with “RNA1{[moe]([m5C])[sp].[moe](A)[sp].[moe]([m5C])[sp].[moe](T)[sp].[moe](T)[sp].[moe](T)[sp].[moe]([m5C])[sp].[moe](A)[sp].[moe](T)[sp].[moe](A)[sp].[moe](A)[sp].[moe](T)[sp].[moe](G)[sp].[moe]([m5C])[sp].[moe](T)[sp].[moe](G)[sp].[moe](G)[sp].[moe]([m5C])}$$$$ (last 3' nucleoside missing)”, 0 score 0-7.
